Calls of active or inactive are those of the source.
Tests used:
Type in all cases: functional
[1] = biological target: G2/mitotic-specific cyclin-B1 (Homo sapiens, UniProt P14635); experiment: Counterscreen assay for inhibitors of Wee1 degradation: dose response cell-based assay to identify inhibitors of cyclin B degradation. [Related pubchem assays: 1410, 1321 ]
[2] = Luminescence Cell-Based Dose Response HTS to Identify Activators of Luciferase Translation or Activity in H4 […] Cells. [Related pubchem assays: 1829 (Project Summary), 1814 (Primary HTS)]
[3] = system: H4; experiment: Luminescence Cell-Based Dose Response HTS to Identify Activators of 5'UTR Stem-Loop Driven Prion Protein mRNA Translation in H4 Neuroglioblastoma Cells. [Related pubchem assays: 1829 (Project Summary), 1814 (Primary HTS)]; settings: Homo sapiens
[4] = biological target: Wee1-like protein kinase (Homo sapiens, UniProt P30291); experiment: Dose Response Cell-based Assay for Inhibitors of Wee1 Degradation. [Related pubchem assays: 1410, 1321 ]
[5] = Counterscreen for IDE inhibitors: Luminescence-based cell-based high throughput dose response assay to identify compounds that are cytotoxic to HEK cells. [Related pubchem assays: 434962 (Primary screen (IDE inhibitors in singlicate)), 449730 (Counterscreen (Cytotoxicity in triplicate)), 435028 (Confirmation (IDE inhibitors in triplicate)) …; settings: HEK293
[6] = biological target: T1, Short transient receptor potential channel 4 (Mus musculus, UniProt Q9QUQ5); experiment: calcium entry via TRPC4 opening agents – cell-based, HEK293 TRPC4/mu-opioid, Fluo-4 calcium, dose response (AID 434937)
T1 sequence (Q9QUQ5 whole entry): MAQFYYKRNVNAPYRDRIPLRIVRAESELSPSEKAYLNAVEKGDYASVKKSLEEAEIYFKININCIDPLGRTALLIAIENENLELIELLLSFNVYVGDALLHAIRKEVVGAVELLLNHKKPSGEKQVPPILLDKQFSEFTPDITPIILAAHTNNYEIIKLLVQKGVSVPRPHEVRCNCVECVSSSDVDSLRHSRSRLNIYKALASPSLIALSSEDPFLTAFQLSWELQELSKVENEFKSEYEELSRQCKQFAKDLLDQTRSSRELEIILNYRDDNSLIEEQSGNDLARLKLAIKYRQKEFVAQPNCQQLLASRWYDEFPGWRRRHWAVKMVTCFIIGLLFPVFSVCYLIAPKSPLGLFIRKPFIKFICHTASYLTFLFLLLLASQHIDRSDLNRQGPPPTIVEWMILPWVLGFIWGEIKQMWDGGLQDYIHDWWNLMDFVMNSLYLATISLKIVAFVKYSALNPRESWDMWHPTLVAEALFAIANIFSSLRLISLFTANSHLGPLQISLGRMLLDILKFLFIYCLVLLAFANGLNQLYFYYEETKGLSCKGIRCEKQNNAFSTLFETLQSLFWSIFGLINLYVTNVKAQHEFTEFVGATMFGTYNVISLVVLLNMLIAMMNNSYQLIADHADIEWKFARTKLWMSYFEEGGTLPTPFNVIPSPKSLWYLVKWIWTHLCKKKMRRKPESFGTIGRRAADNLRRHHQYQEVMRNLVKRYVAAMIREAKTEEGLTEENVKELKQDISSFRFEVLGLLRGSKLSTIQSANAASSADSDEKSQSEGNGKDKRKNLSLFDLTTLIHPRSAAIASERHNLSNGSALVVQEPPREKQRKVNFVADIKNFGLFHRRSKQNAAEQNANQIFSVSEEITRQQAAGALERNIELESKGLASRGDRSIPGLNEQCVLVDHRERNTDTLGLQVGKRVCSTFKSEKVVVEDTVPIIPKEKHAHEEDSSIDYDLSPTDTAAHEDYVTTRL

[7] = biological target: G-protein coupled receptor 55 (Homo sapiens, UniProt Q9Y2T6); experiment: selective activators of receptor GPR55 – imaging, U2OS cells, beta-arrestin-GFP redistribution, primary screen (AID 1961)
[8] = biological target: T2, Insulin-degrading enzyme (Homo sapiens, UniProt P14735); experiment: Dose Response: Fluorescence polarization-based cell-based high throughput dose response assay for inhibitors of insulin-degrading enzyme (IDE). [Related pubchem assays: 434962 (Primary screen (IDE inhibitors in singlicate)), 449730 (Counterscreen (Cytotoxicity in triplicate)), 435028 (Confirmation (IDE inhibitors in triplicate)), 434984 (Summary …
T2 sequence (P14735 whole entry): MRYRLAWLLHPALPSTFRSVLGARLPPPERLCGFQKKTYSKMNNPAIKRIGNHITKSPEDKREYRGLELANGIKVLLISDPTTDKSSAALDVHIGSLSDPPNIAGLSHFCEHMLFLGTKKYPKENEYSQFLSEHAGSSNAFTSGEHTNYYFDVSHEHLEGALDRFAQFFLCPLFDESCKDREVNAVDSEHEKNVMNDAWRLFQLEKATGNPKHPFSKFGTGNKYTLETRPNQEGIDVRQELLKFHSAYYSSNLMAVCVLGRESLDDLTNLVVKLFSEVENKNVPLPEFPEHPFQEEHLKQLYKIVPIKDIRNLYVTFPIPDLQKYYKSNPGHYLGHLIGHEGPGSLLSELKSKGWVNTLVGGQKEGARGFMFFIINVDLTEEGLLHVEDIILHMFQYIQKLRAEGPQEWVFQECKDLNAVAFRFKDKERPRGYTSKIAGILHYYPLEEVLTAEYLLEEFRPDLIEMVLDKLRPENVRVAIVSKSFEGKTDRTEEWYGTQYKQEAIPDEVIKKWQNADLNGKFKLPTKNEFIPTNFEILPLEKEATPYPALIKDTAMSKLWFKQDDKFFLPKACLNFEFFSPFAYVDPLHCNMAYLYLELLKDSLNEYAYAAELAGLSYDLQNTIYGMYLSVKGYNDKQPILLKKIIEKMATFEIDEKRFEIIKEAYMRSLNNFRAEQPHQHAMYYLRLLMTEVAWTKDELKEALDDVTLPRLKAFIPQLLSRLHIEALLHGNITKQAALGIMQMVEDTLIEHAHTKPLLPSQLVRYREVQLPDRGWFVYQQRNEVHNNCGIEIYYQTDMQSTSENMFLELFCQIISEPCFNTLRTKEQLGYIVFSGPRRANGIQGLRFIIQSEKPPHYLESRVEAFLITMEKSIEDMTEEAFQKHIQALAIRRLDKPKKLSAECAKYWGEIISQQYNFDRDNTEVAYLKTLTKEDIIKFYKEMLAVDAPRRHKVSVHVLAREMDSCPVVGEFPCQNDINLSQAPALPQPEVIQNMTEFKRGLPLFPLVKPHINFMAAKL

Sequence of G-protein coupled receptor 55 (Q9Y2T6 whole entry): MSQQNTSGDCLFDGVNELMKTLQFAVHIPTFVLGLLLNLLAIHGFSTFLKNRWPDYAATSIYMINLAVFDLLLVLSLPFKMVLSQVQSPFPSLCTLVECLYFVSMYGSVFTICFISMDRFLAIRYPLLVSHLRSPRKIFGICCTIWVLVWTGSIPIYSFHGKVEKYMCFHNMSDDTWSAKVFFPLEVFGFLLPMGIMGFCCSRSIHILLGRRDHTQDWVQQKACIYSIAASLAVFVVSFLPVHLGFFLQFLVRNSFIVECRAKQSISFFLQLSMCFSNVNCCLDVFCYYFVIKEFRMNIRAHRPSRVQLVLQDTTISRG
Sequence of Wee1-like protein kinase (P30291 whole entry): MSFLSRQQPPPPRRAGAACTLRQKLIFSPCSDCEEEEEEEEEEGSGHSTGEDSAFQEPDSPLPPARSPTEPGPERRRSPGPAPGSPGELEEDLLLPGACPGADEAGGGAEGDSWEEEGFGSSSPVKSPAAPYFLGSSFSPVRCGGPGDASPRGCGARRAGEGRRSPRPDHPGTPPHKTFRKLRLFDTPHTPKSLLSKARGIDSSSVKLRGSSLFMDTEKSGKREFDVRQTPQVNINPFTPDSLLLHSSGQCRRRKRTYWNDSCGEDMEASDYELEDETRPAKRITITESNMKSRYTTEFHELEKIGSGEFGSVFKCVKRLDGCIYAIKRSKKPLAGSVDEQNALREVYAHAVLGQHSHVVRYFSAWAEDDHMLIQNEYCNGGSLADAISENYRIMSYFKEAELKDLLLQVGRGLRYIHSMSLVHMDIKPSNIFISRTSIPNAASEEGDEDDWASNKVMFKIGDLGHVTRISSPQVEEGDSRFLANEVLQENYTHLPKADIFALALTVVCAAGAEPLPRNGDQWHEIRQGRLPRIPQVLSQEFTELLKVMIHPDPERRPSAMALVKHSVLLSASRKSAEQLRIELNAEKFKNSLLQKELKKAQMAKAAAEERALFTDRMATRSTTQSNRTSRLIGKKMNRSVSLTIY
Sequence of G2/mitotic-specific cyclin-B1 (P14635 whole entry): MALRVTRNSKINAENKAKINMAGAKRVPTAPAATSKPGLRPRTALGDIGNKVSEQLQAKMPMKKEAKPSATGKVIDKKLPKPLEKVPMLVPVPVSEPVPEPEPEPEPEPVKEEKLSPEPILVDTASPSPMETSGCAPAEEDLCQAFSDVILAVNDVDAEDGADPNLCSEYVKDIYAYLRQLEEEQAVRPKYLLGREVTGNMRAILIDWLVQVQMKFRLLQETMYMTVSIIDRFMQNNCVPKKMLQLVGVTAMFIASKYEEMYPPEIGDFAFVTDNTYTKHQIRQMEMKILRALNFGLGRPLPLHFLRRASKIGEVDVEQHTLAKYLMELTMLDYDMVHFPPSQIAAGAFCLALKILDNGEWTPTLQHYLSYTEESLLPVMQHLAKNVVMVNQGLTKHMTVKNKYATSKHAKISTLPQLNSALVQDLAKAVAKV

Question: With Cc1cccn2c1nc(=S)n2C(=O)c1ccco1 as the compound, how does the EC50 [1] read?
Answer: > 49.7 µM (not active)

Question: What about the EC50 [2] of the same compound?
Answer: 1.05 µM (active)

Question: What about the EC50 [3] of the same compound?
Answer: 0.104 µM (active)

Question: What about the EC50 [4] of the same compound?
Answer: > 49.7 µM (not active)

Question: Which results are given for CN(C)c1ccc(/C=C/C(=O)c2c(O)oc3ccccc3c2=O)cc1?
Answer: IC50 [5]: > 55.7 µM (not active); EC50 [6]: 7.5 µM (active); EC50 [7]: 19.5 µM (inactive); IC50 [8]: > 2.07 µM (active)

Source: ChEMBL document CHEMBL1201862, “PubChem BioAssay data set” (2004)
